Measurements as given in publication PMC8687465 (bioRxiv, 2023).

System: FLUV (A/WSN/33)
Type: cell-based, influenza A/WSN/33

CCOC(=O)C1=C[C@@H](OC(CC)CC)[C@H](NC(C)=O)[C@@H](N)C1 [Oseltamivir]
activity against FLUV after 7 passages with compound (resistance development): lost activity by passage 7
